Values after ≈ are worked out from the molar mass of the structure shown.
What was measured:
[1] = comparative tests on intrinsic dissolution; assay type: physicochemical; details: Acetonitrile/H2O (60/40), 500 ml, 37° C., 75 revolutions/minute, pellets 0.5 cm^2, UV at 246 nm
Experimental: A. Tests for evaluating the rate of intrinsic dissolution are carried out with the amorphous rimonabant obtained in Example 9 and the rimonabant in its crystalline form.
These tests are carried out under the following conditions: • Solution: Acetonitrile/H2O (60/40) • Volume: 500 ml • Temperature: 37° C. • Rotation speed: 75 revolutions/minute • Surface area of the pellets: 0.5 cm^2 • Compressive force on the pellets: 2 tonnes, 20 seconds • Assay method: UV at 246 nm • Equipment: Vankel “VK700”-Kontron “Uvikon 941+”
B. Tests are carried out with the amorphous surinabant obtained in Example 10 and the surinabant in its crystalline form. The test conditions are identical to those of the comparative tests carried out for rimonabant (see preceding section A).

[2] = water-solubility at pH 6.5; assay type: physicochemical
Experimental: (§1) These compounds are molecules which are relatively water-insoluble; their water-solubilities are respectively 0.1 μg/ml and 1 μg/l at pH=6.5. Furthermore, these compounds have high membrane permeability coefficients: respectively 78×10^−7 cm/s and 96×10^−7 cm/s on the Caco-2 cell model, as described by M. G. Gres et al., in Pharmaceutical Research, 1998, 15(5), 726-733.

[3] = membrane permeability on the Caco-2 cell model; assay type: in vitro ADME; details: human; Caco-2 cell model (Gres et al.); read-out: membrane permeability coefficient
Experimental: as §1

[4] = stability under stressing conditions (100° C., X-ray powder diffractometry); assay type: physicochemical; details: same stressing conditions
Experimental: The apparatus used is a Bragg-Brentano-type DT 500 diffractometer from Siemens®. The line used is Kα1 of copper obtained at an accelerating voltage of 30 mA-40 kV. The diffractograms are recorded for angles of between 2° and 40° at the rate of 1°.min^−1 in Bragg 2-theta.
The physicochemical stability of the solid solution of powder obtained is determined at 100° C. without a controlled atmosphere, for 52 days. Several samples are placed in an oven adjusted to the temperature of 100° C. and analyzed at various times by X-ray powder diffractometry.
The physicochemical stability of the solid solution of Example 2 is determined at 100° C. without a controlled atmosphere, for 28 days. Several samples are placed in an oven adjusted to the temperature of 100° C., and are analyzed at various times by powder X-ray diffractometry.

Row | Compound | rate of intrinsic dissolution [1] | solubility [2] | Papp [3] | time in which it becomes completely crystalline [4]
1 | CCc1c(C(=O)NN2CCCCC2)nn(-c2ccc(Cl)cc2Cl)c1-c1ccc(Br)cc1 [surinabant, N-piperidino-5-(4-bromophenyl)-1-(2,4-dichlorophenyl)-4-ethylpyrazole-3-carboxamide] | – | 1 µg/mL (≈ 1.91 µM) | 9.6 ×10⁻⁶ cm/s | –
2 | CCc1c(C(=O)NN2CCCCC2)nn(-c2ccc(Cl)cc2Cl)c1-c1ccc(Br)cc1 [crystalline surinabant, N-piperidino-5-(4-bromophenyl)-1-(2,4-dichlorophenyl)-4-ethylpyrazole-3-carboxamide] | 0.2 mg.min^−1.cm^−2 | – | – | –

Results, then the compound that gave them:

Row | rate of intrinsic dissolution [1] | solubility [2] | Papp [3] | time in which it becomes completely crystalline [4] | Compound
3 | 0.7 mg.min^−1.cm^−2 | – | – | – | Cc1c(C(=O)NN2CCCCC2)nn(-c2ccc(Cl)cc2Cl)c1-c1ccc(Cl)cc1 [crystalline rimonabant, N-Piperidino-5-(4-chlorophenyl)-1-(2,4-dichlorophenyl)-4-methylpyrazole-3-carboxamide]
4 | 1.3 mg.min^−1.cm^−2 | – | – | – | Cc1c(C(=O)NN2CCCCC2)nn(-c2ccc(Cl)cc2Cl)c1-c1ccc(Cl)cc1 [amorphous rimonabant, N-Piperidino-5-(4-chlorophenyl)-1-(2,4-dichlorophenyl)-4-methylpyrazole-3-carboxamide]
5 | – | 0.1 µg/mL (≈ 0.216 µM) | 7.8 ×10⁻⁶ cm/s | – | Cc1c(C(=O)NN2CCCCC2)nn(-c2ccc(Cl)cc2Cl)c1-c1ccc(Cl)cc1 [rimonabant, N-Piperidino-5-(4-chlorophenyl)-1-(2,4-dichlorophenyl)-4-methylpyrazole-3-carboxamide]
6 | 0.85 mg.min^−1.cm^−2 | – | – | ≤ 24 h | CCc1c(C(=O)NN2CCCCC2)nn(-c2ccc(Cl)cc2Cl)c1-c1ccc(Br)cc1 [amorphous surinabant, N-piperidino-5-(4-bromophenyl)-1-(2,4-dichlorophenyl)-4-ethylpyrazole-3-carboxamide]
